Literature values, collected in patent publication US9999577B2, “Cream gels comprising at least one retinoid and benzoyl peroxide” (GALDERMA RESEARCH & DEVELOPMENT, priority 2006, dated 2018).
Read-outs that look alike come from different tables or passages of the source. Blank lines part the entries; values can stand above or below the compound they belong to.

Tests used:
[1] = not given; remark: listed apart in the source
[2] = for Decomposition time of benzoyl peroxide: 40° C.

Retinoid decomposition in presence of benzoyl peroxide formulation (during 24 hours): no decomposition
Compound: COc1ccc(-c2ccc3cc(C(=O)O)ccc3c2)cc1C12CC3CC(CC(C3)C1)C2 [adapalene, 6-(3-(1-adamantyl)-4-methoxyphenyl)-2-naphthoic acid]

Compound: O=C(OOC(=O)c1ccccc1)c1ccccc1 [benzoyl peroxide]
Solubility of benzoyl peroxide ([1]; solvent PEG 400): 39.6 mg/g
Solubility of benzoyl peroxide ([1]; solvent ethanol): 17.9 mg/g
Solubility of benzoyl peroxide ([1]; solvent glycerol): 0.15 mg/g
Solubility of benzoyl peroxide ([1]; solvent propylene glycol): 2.95 mg/g
Solubility of benzoyl peroxide ([1]; solvent propylene glycol/water (75:25)): 0.36 mg/g
Solubility of benzoyl peroxide ([1]; solvent water): 0.000155 mg/g
Decomposition of benzoyl peroxide in suspension ([2]; dispersed form in water and propylene glycol, storing for 90 days): not decomposed
Decomposition time of benzoyl peroxide ([2]; in PEG 400 (0.5 mg/g)): 1.4 days
Decomposition time of benzoyl peroxide ([2]; in ethanol): 29 days
Decomposition time of benzoyl peroxide ([2]; in propylene glycol): 53 days

Retinoid decomposing in presence of benzoyl peroxide formulation (2 hours): 50%
Retinoid decomposing in presence of benzoyl peroxide formulation (4 hours): 95%
Compound: CC1=C(/C=C/C(C)=C/C=C/C(C)=C/C(=O)O)C(C)(C)CCC1 [tretinoin]
